From patent publication EP4603105A1, “PHARMACEUTICAL COMPOSITION CONTAINING CYCLIC COMPOUND HAVING SELECTIVE KRAS INHIBITORY EFFECT AGAINST HRAS AND NRAS” (CHUGAI SEIYAKU KABUSHIKI KAISHA, priority 2022, dated 2024)
Where a SMILES comes first, the peptide text is derived from it. Bridges are numbered along the chain shown (N, C = ends). [ ]: non-standard residue; d: D form. The star is where a group is joined. hPhe(3-Cl-4-CF3) = N[C@@H](CCc1ccc(C(F)(F)F)c(Cl)c1)C(=O)O; NPrPhe(4-CF3) = CCCN[C@@H](Cc1ccc(C(F)(F)F)cc1)C(=O)O; NMeChg = CN[C@H](C(=O)O)C1CCCCC1; NMeD = CN[C@@H](CC(=O)O)C(=O)O; NMeL = CN[C@@H](CC(C)C)C(=O)O; Morpholide = C1CN(*)CCO1; Ac4c = NC1(C(=O)O)CCC1; Sar = CNCC(=O)O

Assays:
[1] = test system: human lung cancer strain NCI-H441; format: cell-based
In short: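 Readout: […] after the ATP-based reagent. Compound: serial dilutions in dimethyl sulfoxide.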

[2] = molecular target: HRAS wild-type protein (Homo sapiens, UniProt P01112); experiment: Binding to HRAS by surface plasmon resonance (SPR), KD and KD ratio to KRAS
In short: (§1)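 GDP-loaded biotinylated Avi-tag RAS proteins (E. coli-expressed) captured on a Biotin CAPture chip at ~100–300 RU; single-cycle kinetics at 30°C, 100 µL/min, 75 s injections of rising compound concentrations. HBS pH 7.4 running buffer with 1 mM DTT, 10 mM MgCl2, 10 µM GDP, 4% DMSO. KD from 1:1 binding fit.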

[3] = molecular target: GDP-bound NRAS wild-type protein (Homo sapiens, UniProt P01111); experiment: Binding to NRAS by surface plasmon resonance (SPR), KD and KD ratio to KRAS
In short: as §1

[4] = ratio of KD for HRAS wild-type protein to KD for KRAS
[5] = ratio of KD for GDP-bound NRAS wild-type protein to KD for KRAS
[6] = ratio of the KD value with respect to HRAS wild-type protein to the KD value with respect to KRAS
[7] = ratio of the KD value with respect to GDP-bound NRAS wild-type protein to the KD value with respect to KRAS

Chain of HRAS wild-type protein (P01112 whole entry): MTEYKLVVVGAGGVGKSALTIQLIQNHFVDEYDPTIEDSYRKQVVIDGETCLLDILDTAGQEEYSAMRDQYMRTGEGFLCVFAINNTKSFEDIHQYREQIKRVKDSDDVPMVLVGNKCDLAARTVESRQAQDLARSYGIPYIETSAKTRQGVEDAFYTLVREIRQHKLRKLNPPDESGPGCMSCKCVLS
Chain of GDP-bound NRAS wild-type protein (P01111 whole entry): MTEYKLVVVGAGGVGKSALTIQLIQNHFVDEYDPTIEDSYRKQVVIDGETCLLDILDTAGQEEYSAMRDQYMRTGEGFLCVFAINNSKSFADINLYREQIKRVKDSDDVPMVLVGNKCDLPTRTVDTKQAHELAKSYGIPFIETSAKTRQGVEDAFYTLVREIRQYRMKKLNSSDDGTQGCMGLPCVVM

| SMILES | IC50 [1] [µM] | HRAS /KRAS [2, 4] | NRAS /KRAS [3, 5] | HRAS /KRAS [2, 6] | NRAS /KRAS [3, 7] |
| --- | --- | --- | --- | --- | --- |
| CCC[C@H]1C(=O)N[C@@H]([C@@H](C)CC)C(=O)N(C)CC(=O)N(C)[C@H]2C/C=C\CCN(C2=O)[C@@H](Cc2ccc(C(F)(F)F)cc2)C(=O)N(C)CC(=O)N[C@@H](CCc2cc(Cl)c3c(ccn3C)c2)C(=O)N2C[C@H](OCC)C[C@H]2C(=O)NC2(CC(C)(C)C2)C(=O)N(C)[C@@H](C2CCCC2)C(=O)N(C)[C@H](C(=O)N(C)C)CC(=O)N1C [PP2950] | 0.0242 | A (a compound having 10 or more and less than 20 is denoted as A) | A (a compound having 10 or more and less than 20 is denoted as A) | – | – |
| CCO[C@@H]1C[C@H]2C(=O)NC3(CC(C)(C)C3)C(=O)N(C)[C@@H](C3CCCC3)C(=O)N(C)[C@H](C(=O)N(C)C)CC(=O)N(C)[C@@H](C3CCC3)C(=O)N[C@@H]([C@@H](C)CC)C(=O)N(C)CC(=O)N(C)[C@H]3C/C=C\CCN(C3=O)[C@@H](Cc3ccc(C(F)(F)F)cc3)C(=O)N(C)CC(=O)N[C@@H](CCc3ccc(C(F)(F)F)c(OC)c3)C(=O)N2C1 [PP1987] | 0.0066 | – | – | A (a compound having 10 or more and less than 20 is denoted as A) | A (a compound having 10 or more and less than 20 is denoted as A) |
| CCO[C@@H]1C[C@H]2C(=O)N(C)C3(CCC3)C(=O)N(C)[C@@H](C(CC)CC)C(=O)N(C)[C@H](C(=O)N(C)C)CC(=O)N(C)[C@@H](COC)C(=O)N[C@@H]([C@@H](C)CC)C(=O)N(C)CC(=O)N(C)[C@H]3C/C=C\CCN(C3=O)[C@@H](CC3CCCCC3)C(=O)N(C)CC(=O)N[C@@H](CCc3ccc(C(F)(F)F)c(OC)c3)C(=O)N2C1 [PP2335] | 0.0642 | – | – | A (a compound having 10 or more and less than 20 is denoted as A) | A (a compound having 10 or more and less than 20 is denoted as A) |
| CCO[C@@H]1C[C@H]2C(=O)NC3(CCC3)C(=O)N(C)[C@@H](C3CCCC3)C(=O)N(C)[C@H](C(=O)N3CCOCC3)CC(=O)N(C)[C@@H](CC(C)C)C(=O)N[C@@H](C3CC(F)(F)C3)C(=O)N(C)CC(=O)N(C)[C@H]3CCCCN(C3=O)[C@@H](Cc3ccc(C(F)(F)F)cc3)C(=O)N(C)CC(=O)N[C@@H](CCc3cc(F)c(C(F)(F)F)c(F)c3)C(=O)N2C1 [PP0807] | 0.0167 | B (a compound having 3 or more and less than 10 is denoted as B) | B (a compound having 3 or more and less than 10 is denoted as B) | – | – |
| CCC[C@H]1C(=O)N[C@@H]([C@@H](C)CC)C(=O)N2CCC[C@H]2C(=O)N(C)[C@H]2C/C=C\CCN(C2=O)[C@@H](Cc2ccc(C(F)(F)F)cc2)C(=O)N(C)CC(=O)N[C@@H](CCc2ccc(C(F)(F)F)c(OC)c2)C(=O)N2C[C@H](OCC)C[C@H]2C(=O)N(C)C2(CCC2)C(=O)N(C)[C@@H](C2CCCC2)C(=O)N(C)[C@H](C(=O)N2CCCC2)CC(=O)N1C [PP3101] | 0.0049 | A (a compound having 10 or more and less than 20 is denoted as A) | A (a compound having 10 or more and less than 20 is denoted as A) | – | – |

The remaining compounds from weak to strong by IC50 [1], led by results:

| IC50 [1] [µM] | SMILES | HRAS /KRAS [2, 4] | NRAS /KRAS [3, 5] | HRAS /KRAS [2, 6] | NRAS /KRAS [3, 7] |
| --- | --- | --- | --- | --- | --- |
| 0.0184 | CCCN1C(=O)CN(C)C(=O)CN(C)C(=O)[C@H]([C@@H](C)CC)NC(=O)[C@H](CC(C)C)N(C)C(=O)C[C@@H](C(=O)N2CCOCC2)N(C)C(=O)[C@H](C2CCCCC2)N(C)C(=O)C2(CCC2)NC(=O)[C@@H]2CCCN2C(=O)[C@H](CCc2ccc(C(F)(F)F)c(Cl)c2)NC(=O)CN(C)C(=O)[C@@H]1Cc1ccc(C(F)(F)F)cc1 [PP1928] ([NMeL]I[Sar][Sar][NPrPhe(4-CF3)][Sar][hPhe(3-Cl-4-CF3)]P[Ac4c][NMeChg][NMeD]-Morpholide; lactam N-11) | – | – | B (a compound having 3 or more and less than 10 is denoted as B) | B (a compound having 3 or more and less than 10 is denoted as B) |
| 0.0179 | CCOC1CC2C(=O)NC3(CCC3)C(=O)N(C)C(C(C)CC)C(=O)N(C)[C@H](C(=O)N3CCOCC3)CC(=O)N(C)[C@@H](CC(C)C)C(=O)N[C@@H]([C@@H](C)CC)C(=O)N(C)CC(=O)N(C)[C@H]3CCCCN(C3=O)[C@@H](Cc3ccc(C(F)(F)F)cc3)C(=O)N(C)CC(=O)N[C@@H](CCc3cc(F)c(C(F)(F)F)c(F)c3)C(=O)N2C1 (stereo partly drawn) [PP0812] | B (a compound having 3 or more and less than 10 is denoted as B) | B (a compound having 3 or more and less than 10 is denoted as B) | – | – |
| 0.0073 | CCO[C@@H]1C[C@H]2C(=O)NC3(CC(F)(F)C3)C(=O)N(C)[C@@H](C3CCCC3)C(=O)N(C)[C@H](C(=O)N3CCOCC3)CC(=O)N(C)[C@@H](CC(C)C)C(=O)N[C@@H]([C@@H](C)CC)C(=O)N(C)CC(=O)N(C)[C@H]3CC=C(C)CN(C3=O)[C@@H](Cc3ccc(C(F)(F)F)cc3)C(=O)N(C)CC(=O)N[C@@H](CCc3cc(F)c(C(F)(F)F)c(F)c3)C(=O)N2C1 [PP0828] | C (A compound having a KD ratio of 0.1 or more and less than 3 is denoted as C) | C (A compound having a KD ratio of 0.1 or more and less than 3 is denoted as C) | – | – |
